# Reference: the NIST ThermoML archive (doi:10.1021/je900716q)
# Numbers after ± are expanded uncertainties.
# Tests used:
# [1] = 101.33 kPa, Liquid, Pycnometric method
# [2] = xn = mol fraction of the nth substance listed; settings: Liquid, measurement of pressure, x2 = 0
SMILES,mass density ([1]; 300.71 K),mass density ([1]; 303.35 K),mass density ([1]; 304.95 K),mass density ([1]; 307.31 K),mass density ([1]; 310.81 K),mass density ([1]; 314.35 K),binary diffusion coefficient ([2]; 303.15 K),binary diffusion coefficient ([2]; 313.15 K),binary diffusion coefficient ([2]; 323.15 K),binary diffusion coefficient ([2]; 333.15 K),binary diffusion coefficient ([2]; 343.15 K),binary diffusion coefficient ([2]; 353.15 K)
C[n+]1ccn(CCO)c1.F[B-](F)(F)F [1-(2-hydroxyethyl)-3-methylimidazolium tetrafluoroborate],1384 ± 1 kg/m3,1380 ± 1 kg/m3,1379 ± 1 kg/m3,1376 ± 1 kg/m3,1373 ± 1 kg/m3,1369 ± 1 kg/m3,–,–,–,–,–,–
C[n+]1ccn(CCO)c1.F[B-](F)(F)F [1-(2-hydroxyethyl)-3-methylimidazolium tetrafluoroborate] + O=C=O,–,–,–,–,–,–,1.4e-08 m2/s,2.09e-08 m2/s,3.94e-08 m2/s,4.65e-08 m2/s,5.71e-08 m2/s,7.16e-08 m2/s
C[n+]1ccn(CCO)c1.F[B-](F)(F)F [1-(2-hydroxyethyl)-3-methylimidazolium tetrafluoroborate] + S,–,–,–,–,–,–,1.79e-08 m2/s,2.15e-08 m2/s,2.76e-08 m2/s,3.24e-08 m2/s,3.8e-08 m2/s,4.41e-08 m2/s
